What was measured:
[1] = test system: Echinochloa oryzoides (Ard.) Fritsch.; assay: Preemergence weed control under flooded paddy conditions, ECHORC (Watergrass (Calif.)); type: in vivo; settings: preemergence, flooded paddy, rated three to four weeks after treatment; as to herbicidal effect rating, ECHORC: meaning of each grade not given here
Cyperus iria = assay: Preemergence weed control under flooded paddy conditions, CYPIR (Rice Flatsedge); type: in vivo; settings: preemergence, flooded paddy, rated three to four weeks after treatment; as to herbicidal effect rating, CYPIR: meaning of each grade not given here
[2] = test system: Cyperus serotinus, Rottb.; assay: Preemergence weed control under flooded paddy conditions, CYPSE (Flatsedge); type: in vivo; settings: preemergence, rated three to four weeks after treatment; as to herbicidal effect rating, CYPSE: meaning of each grade not given here
[3] = test system: Monochoria vaginalis, Presl.; assay: Preemergence weed control under flooded paddy conditions, MOOVA (Monochoria); type: in vivo; settings: preemergence, flooded paddy, rated three to four weeks after treatment; as to herbicidal effect rating, MOOVA: meaning of each grade not given here
Sagittaria pygmaea, L. = assay: Preemergence weed control under flooded paddy conditions, SAGPY (Arrowhead (Pygmaea)); type: in vivo; settings: preemergence, flooded paddy, rated three to four weeks after treatment; as to herbicidal effect rating, SAGPY: meaning of each grade not given here
[4] = test system: Oryza sativa, (L.) Tebonnet; assay: Rice tolerance to post-transplant applications under flooded paddy conditions (Example 187), ORYSAT (Rice, Tebonnet); settings: rated three to four weeks after treatment

For `COC(=O)COc1cc(Cl)c(C)cc1-c1nsc2ccc(-n3c(=O)cc(C(F)(F)F)n(C)c3=O)cc12` [Example 493, Acetic acid, {{5-chloro-2-{5-[3,6-dihydro-3-methyl-2,6-dioxo-4-(trifluoromethyl)-1(2H)-pyrimidinyl]-1,2-benzisothiazol-3-yl}-p-tolyl}oxy}-, methyl ester], the ECHORC herbicidal rating ([1]; 0.0320 kg/ha) was 4.0, the ECHORC herbicidal rating ([1]; 0.0620 kg/ha) was 5.0 and the ECHORC herbicidal rating ([1]; 0.1250 kg/ha) was 9.0. The ECHORC herbicidal rating ([1]; 0.2500 kg/ha) was 9.0, the CYPIR herbicidal rating (Cyperus iria; 0.0320 kg/ha) was 4.0 and the CYPIR herbicidal rating (Cyperus iria; 0.0620 kg/ha) was 6.0. It also gave a CYPIR herbicidal rating (Cyperus iria; 0.1250 kg/ha) of 7.0, a CYPIR herbicidal rating (Cyperus iria; 0.2500 kg/ha) of 9.0 and a CYPSE herbicidal rating ([2]; 0.1250 kg/ha) of 9.0. The CYPSE herbicidal rating ([2]; 0.2500 kg/ha) was 9.0, the MOOVA herbicidal rating ([3]; 0.0320 kg/ha) was 5.0 and the MOOVA herbicidal rating ([3]; 0.0620 kg/ha) was 7.0. It also gave an MOOVA herbicidal rating ([3]; 0.1250 kg/ha) of 7.0, an MOOVA herbicidal rating ([3]; 0.2500 kg/ha) of 9.0 and an SAGPY herbicidal rating (Sagittaria pygmaea, L.; 0.0320 kg/ha) of 0.0. For the same molecule, the SAGPY herbicidal rating (Sagittaria pygmaea, L.; 0.0620 kg/ha) was 0.0, the SAGPY herbicidal rating (Sagittaria pygmaea, L.; 0.1250 kg/ha) was 0.0 and the SAGPY herbicidal rating (Sagittaria pygmaea, L.; 0.2500 kg/ha) was 3.0. For the same molecule, the “ORYSAT herbicidal rating (rice tolerance)” value (“ORYSAT herbicidal rating” below) ([4]; 0.0320 kg/ha) was 2.0, the “ORYSAT herbicidal rating” value ([4]; 0.0620 kg/ha) was 2.0 and the “ORYSAT herbicidal rating” value ([4]; 0.1250 kg/ha) was 3.0. The “ORYSAT herbicidal rating” value ([4]; 0.2500 kg/ha) was 3.0.
`CCCS(=O)(=O)NC(=O)C(C)Oc1ccc(C)cc1-c1nsc2ccc(-n3c(=O)cc(C(F)(F)F)n(C)c3=O)cc12` (stereo not shown) [Example 569, Propionamide, 2-{{2-{5-[3,6-dihydro-3-methyl-2,6-dioxo-4-(trifluoromethyl)-1(2H)-pyrimidinyl]-1,2-benzisothiazol-3-yl}-p-tolyl}oxy}-N-(propyl-sulfonyl)-] was tested, and the “herbicidal effect rating, ECHORC” value ([1]; Rate 0.0320 kg/ha) was 2.0, the “herbicidal effect rating, ECHORC” value ([1]; Rate 0.0620 kg/ha) was 4.0 and the “herbicidal effect rating, ECHORC” value ([1]; Rate 0.1250 kg/ha) was 5.0. The “herbicidal effect rating, ECHORC” value ([1]; Rate 0.2500 kg/ha) was 5.0, the “herbicidal effect rating, CYPIR” value (Cyperus iria; Rate 0.0320 kg/ha) was 0.0 and the “herbicidal effect rating, CYPIR” value (Cyperus iria; Rate 0.0620 kg/ha) was 0.0. The “herbicidal effect rating, CYPIR” value (Cyperus iria; Rate 0.1250 kg/ha) was 0.0, the “herbicidal effect rating, CYPIR” value (Cyperus iria; Rate 0.2500 kg/ha) was 0.0 and the “herbicidal effect rating, CYPSE” value ([2]; Rate 0.0320 kg/ha) was 0.0. The “herbicidal effect rating, CYPSE” value ([2]; Rate 0.0620 kg/ha) was 0.0, the “herbicidal effect rating, CYPSE” value ([2]; Rate 0.1250 kg/ha) was 0.0 and the “herbicidal effect rating, CYPSE” value ([2]; Rate 0.2500 kg/ha) was 0.0. For the same molecule, the “herbicidal effect rating, MOOVA” value ([3]; Rate 0.0320 kg/ha) was 4.0, the “herbicidal effect rating, MOOVA” value ([3]; Rate 0.0620 kg/ha) was 6.0 and the “herbicidal effect rating, MOOVA” value ([3]; Rate 0.1250 kg/ha) was 6.0. The “herbicidal effect rating, MOOVA” value ([3]; Rate 0.2500 kg/ha) was 6.0, the “herbicidal effect rating, SAGPY” value (Sagittaria pygmaea, L.; Rate 0.0320 kg/ha) was 0.0 and the “herbicidal effect rating, SAGPY” value (Sagittaria pygmaea, L.; Rate 0.0620 kg/ha) was 0.0. The “herbicidal effect rating, SAGPY” value (Sagittaria pygmaea, L.; Rate 0.1250 kg/ha) was 0.0, the “herbicidal effect rating, SAGPY” value (Sagittaria pygmaea, L.; Rate 0.2500 kg/ha) was 9.0 and the “herbicidal effect rating ORYSAT” value ([4]; Rate 0.0320 kg/ha) was 0.0. The “herbicidal effect rating ORYSAT” value ([4]; Rate 0.0620 kg/ha) was 0.0, the “herbicidal effect rating ORYSAT” value ([4]; Rate 0.1250 kg/ha) was 0.0 and the “herbicidal effect rating ORYSAT” value ([4]; Rate 0.2500 kg/ha) was 1.0.
For `CC/C(C=O)=C\c1nsc2ccc(-n3c(=O)cc(C(F)(F)F)n(C)c3=O)cc12` [Example 567, 1,2-Benzisothiazole-3-acrylaldehyde, 5-[3,6-dihydro-3-methyl-2,6-dioxo-4-(trifluoromethyl)-1(2H)-pyrimidinyl]-alpha-ethyl-, (E)-], the “herbicidal effect rating, ECHORC” value ([1]; Rate 0.0320 kg/ha) was 0.0, the “herbicidal effect rating, ECHORC” value ([1]; Rate 0.0620 kg/ha) was 0.0 and the “herbicidal effect rating, ECHORC” value ([1]; Rate 0.1250 kg/ha) was 2.0. For the same molecule, the “herbicidal effect rating, ECHORC” value ([1]; Rate 0.2500 kg/ha) was 4.0, the “herbicidal effect rating, CYPIR” value (Cyperus iria; Rate 0.0320 kg/ha) was 4.0 and the “herbicidal effect rating, CYPIR” value (Cyperus iria; Rate 0.0620 kg/ha) was 9.0. The “herbicidal effect rating, CYPIR” value (Cyperus iria; Rate 0.1250 kg/ha) was 4.0, the “herbicidal effect rating, CYPIR” value (Cyperus iria; Rate 0.2500 kg/ha) was 9.0 and the “herbicidal effect rating, CYPSE” value ([2]; Rate 0.0320 kg/ha) was 0.0. The “herbicidal effect rating, CYPSE” value ([2]; Rate 0.0620 kg/ha) was 0.0, the “herbicidal effect rating, CYPSE” value ([2]; Rate 0.1250 kg/ha) was 0.0 and the “herbicidal effect rating, CYPSE” value ([2]; Rate 0.2500 kg/ha) was 0.0. For the same molecule, the “herbicidal effect rating, MOOVA” value ([3]; Rate 0.0320 kg/ha) was 0.0, the “herbicidal effect rating, MOOVA” value ([3]; Rate 0.0620 kg/ha) was 3.0 and the “herbicidal effect rating, MOOVA” value ([3]; Rate 0.1250 kg/ha) was 9.0. For the same molecule, the “herbicidal effect rating, MOOVA” value ([3]; Rate 0.2500 kg/ha) was 9.0, the “herbicidal effect rating, SAGPY” value (Sagittaria pygmaea, L.; Rate 0.0320 kg/ha) was 0.0 and the “herbicidal effect rating, SAGPY” value (Sagittaria pygmaea, L.; Rate 0.0620 kg/ha) was 0.0. For the same molecule, the “herbicidal effect rating, SAGPY” value (Sagittaria pygmaea, L.; Rate 0.1250 kg/ha) was 0.0, the “herbicidal effect rating, SAGPY” value (Sagittaria pygmaea, L.; Rate 0.2500 kg/ha) was 0.0 and the “herbicidal effect rating ORYSAT” value ([4]; Rate 0.0320 kg/ha) was 0.0. The “herbicidal effect rating ORYSAT” value ([4]; Rate 0.0620 kg/ha) was 0.0, the “herbicidal effect rating ORYSAT” value ([4]; Rate 0.1250 kg/ha) was 1.0 and the “herbicidal effect rating ORYSAT” value ([4]; Rate 0.2500 kg/ha) was 2.0.
